# Molecular target: Voltage-gated potassium channel, KQT; KCNQ2(Kv7.2)/KCNQ3(Kv7.3) (Homo sapiens, UniProt O43525+O43526)
# Assay: Activation of KCNQ2/Q3
# Assay type: protein-complex assay
# Sequence of Voltage-gated potassium channel, KQT; KCNQ2(Kv7.2)/KCNQ3(Kv7.3) (O43526 whole entry): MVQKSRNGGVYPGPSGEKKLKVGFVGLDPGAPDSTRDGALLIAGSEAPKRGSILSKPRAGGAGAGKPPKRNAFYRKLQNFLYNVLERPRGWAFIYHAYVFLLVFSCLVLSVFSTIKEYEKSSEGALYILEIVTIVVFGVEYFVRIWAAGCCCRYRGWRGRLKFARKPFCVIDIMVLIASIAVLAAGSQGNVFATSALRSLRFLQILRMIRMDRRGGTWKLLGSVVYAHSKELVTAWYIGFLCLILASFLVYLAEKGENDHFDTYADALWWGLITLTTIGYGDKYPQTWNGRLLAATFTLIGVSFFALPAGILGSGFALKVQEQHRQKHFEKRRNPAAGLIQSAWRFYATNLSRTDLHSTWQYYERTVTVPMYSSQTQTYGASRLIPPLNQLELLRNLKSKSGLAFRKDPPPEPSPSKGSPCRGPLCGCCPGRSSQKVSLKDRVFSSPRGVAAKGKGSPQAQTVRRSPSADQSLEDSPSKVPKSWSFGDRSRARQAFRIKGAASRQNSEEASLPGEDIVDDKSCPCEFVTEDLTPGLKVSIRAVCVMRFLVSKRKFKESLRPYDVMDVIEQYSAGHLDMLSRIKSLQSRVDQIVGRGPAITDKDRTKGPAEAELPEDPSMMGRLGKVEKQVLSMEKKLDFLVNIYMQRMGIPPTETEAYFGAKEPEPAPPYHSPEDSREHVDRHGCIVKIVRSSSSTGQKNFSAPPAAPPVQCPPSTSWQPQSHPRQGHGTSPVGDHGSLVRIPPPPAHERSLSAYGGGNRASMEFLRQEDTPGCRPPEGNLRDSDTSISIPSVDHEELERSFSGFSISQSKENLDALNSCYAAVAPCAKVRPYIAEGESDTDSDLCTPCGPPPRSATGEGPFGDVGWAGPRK
# Sequence of Voltage-gated potassium channel, KQT; KCNQ2(Kv7.2)/KCNQ3(Kv7.3) (O43525 whole entry): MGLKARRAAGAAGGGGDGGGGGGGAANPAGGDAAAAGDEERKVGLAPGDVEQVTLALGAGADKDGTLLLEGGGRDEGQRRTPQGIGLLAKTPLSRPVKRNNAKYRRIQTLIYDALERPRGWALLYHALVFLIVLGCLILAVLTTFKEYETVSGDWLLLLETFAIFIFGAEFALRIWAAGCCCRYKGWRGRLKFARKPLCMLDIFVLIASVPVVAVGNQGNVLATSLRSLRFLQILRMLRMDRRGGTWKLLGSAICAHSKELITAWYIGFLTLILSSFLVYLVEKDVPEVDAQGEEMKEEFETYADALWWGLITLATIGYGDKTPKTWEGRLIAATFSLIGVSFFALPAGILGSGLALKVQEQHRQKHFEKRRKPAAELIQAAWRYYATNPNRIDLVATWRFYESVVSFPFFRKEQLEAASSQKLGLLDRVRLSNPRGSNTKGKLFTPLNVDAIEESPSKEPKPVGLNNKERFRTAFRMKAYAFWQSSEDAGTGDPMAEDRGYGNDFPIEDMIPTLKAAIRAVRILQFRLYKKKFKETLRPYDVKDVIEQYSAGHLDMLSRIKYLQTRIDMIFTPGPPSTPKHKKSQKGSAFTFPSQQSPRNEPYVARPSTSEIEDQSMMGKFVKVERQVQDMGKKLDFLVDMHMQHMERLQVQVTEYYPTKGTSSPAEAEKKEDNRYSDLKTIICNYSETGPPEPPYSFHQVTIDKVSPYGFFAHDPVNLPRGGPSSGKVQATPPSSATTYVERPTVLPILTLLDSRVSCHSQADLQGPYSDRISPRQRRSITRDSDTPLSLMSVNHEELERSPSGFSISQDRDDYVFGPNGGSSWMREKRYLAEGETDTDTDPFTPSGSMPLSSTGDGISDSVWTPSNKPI
row,SMILES,EC50
1,CC(C)(C)CC(=O)Nc1nn2cccnc2c1-c1ccc(OC(F)(F)F)cc1,< 500 nM
2,CC(C)(C)CC(=O)Nc1nn2cccnc2c1-c1ccc(F)cc1,< 1000 nM
3,Cc1cnc2c(Cc3ccc(F)cc3)c(NC(=O)CC3CCCC3)nn2c1,< 100 nM
